The target in this assay is GPR35 (Homo sapiens, UniProt Q9HC97). The assay can be described thus: label-free dynamic mass redistribution. It is filed as cell-based. Particulars: read-out: EC50/IC50; agonist mode; HBSS, 10 mM HEPES, pH 7.4.
GPR35, sequence (Q9HC97 whole entry): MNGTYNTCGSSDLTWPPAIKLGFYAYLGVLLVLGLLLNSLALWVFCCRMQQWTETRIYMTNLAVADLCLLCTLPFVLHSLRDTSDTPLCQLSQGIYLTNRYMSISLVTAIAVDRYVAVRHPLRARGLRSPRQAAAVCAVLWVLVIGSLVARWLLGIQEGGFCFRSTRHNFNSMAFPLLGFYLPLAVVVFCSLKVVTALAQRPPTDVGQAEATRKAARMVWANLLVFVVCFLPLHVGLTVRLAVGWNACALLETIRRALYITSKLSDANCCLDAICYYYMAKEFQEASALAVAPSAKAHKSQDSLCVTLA

In the case of `COc1c(O)cc2occ(-c3ccc(O)cc3)c(=O)c2c1O` [LCDD-41, tectorigenin], the EC50 was > 200 µM. In the case of `O=C1c2c(O)cc(O)cc2O[C@H](c2ccc(O)c(O)c2)[C@H]1O` [LCDD-68, taxifolin] it was > 200 µM. In the case of `O=C(/C=C/c1ccc(O)c(O)c1)O[C@@H]1[C@H](O)C[C@@](O)(C(=O)O)C[C@H]1OC(=O)/C=C/c1ccc(O)c(O)c1` [LCDD-79, isochlorogenic acid C] it was 114 µM; in that of `O=C(/C=C/c1ccc(O)cc1)c1ccc(O)cc1O` [LCDD-88, isoliquiritigenin], > 200 µM; in that of `COc1c(/C=C/C(=O)c2ccc(O)cc2)ccc(O)c1O` [LCDD-93, licochalcone B], 25.1 µM.

In the case of `O=C(O)[C@H]1O[C@@H](Oc2cc3oc(-c4ccccc4)cc(=O)c3c(O)c2O)[C@H](O)[C@@H](O)[C@@H]1O` [LCDD-117, baicalin], the EC50 is > 200 µM.

Values taken from publication PMC8329432 (Journal of Ethnopharmacology, 2021).
